Measurements as given in patent US10064858B2, “Methods and compositions for treating bacterial infections with iron chelators” (THE UNITED STATES OF AMERICA, AS REPRESENTED BY THE …, priority 2011, dated 2018).

How the values were obtained:
[1] = system: five clinical isolates of A. baumannii and AB19606; assay: Growth (OD600) of six A. baumannii strains with VK28 in low-iron M9 media; format: cell-based; details: 200 μM VK28 after 4 hr of growth, 24 hr
Method: Five clinical isolates of A. baumannii were obtained from Walter Reed Army Medical Center (WRAMC) and compared to the laboratory strain AB19606 from the ATCC. Strains were challenged with either 0 μM or 200 μM VK28 in low-iron M9 media after 4 hr of growth. Growth was estimated by absorbance at 600 nm every 4 hr for 24 hr. Dashed lines represent the same strains treated with 200 μM VK28.

Klebsiella pneumonia = assay: Growth (OD600) with VK28 in M9 media with magnesium / calcium; format: cell-based; details: 50-200 μg/ml VK28, 24 hours
Method: Klebsiella pneumonia was grown in M9 media containing 2 mM MgSO4 for 24 hours in the presence of 0 μg/ml, 50 μg/ml, 100 μg/ml, or 200 μg/ml VK28. The OD600 was measured at 0, 4, and 24 hour and the results are shown in the time-kill curves of FIG. 16.
Klebsiella pneumonia was grown similar to as described in Example 19 in M9 media containing 2 mM MgSO4 and 1.34 mM CaCl2 for 24 hours in the presence of 0 μg/ml, 50 μg/ml, 100 μg/ml, or 200 μg/ml VK28. The OD600 was measured at 24 hour and the results are shown in the bar graph of FIG. 17.

[2] = mouse; systemically/intravenously; cited from earlier work

Question: For `OCCN1CCN(Cc2ccc(O)c3ncccc23)CC1` [VK28, 5-(4-(2-hydroxyethyl)piperazin-1-ylmethyl)-8-hydroxyquinoline], which “OD600 values (growth)” value [1] is on record?
Answer: The value was “greatly decreases the OD600 values”.

Question: And the “inhibition of growth (OD600)” value (Klebsiella pneumonia; M9 with 2 mM MgSO4)?
Answer: Its value is “inhibition of growth is not reduced in the presence of magnesium”.

Question: What about the “inhibition of growth (OD600)” value (Klebsiella pneumonia; M9 with 2 mM MgSO4 and 1.34 mM CaCl2) of the same compound?
Answer: The value was “inhibition of growth is not reduced in the presence of magnesium and calcium”.

Question: What about the dose showing toxicity [2] of the same compound?
Answer: Its dose showing toxicity is 30 mg/kg.
